Read-outs that look alike come from different tables or passages of the source.
What was measured:
angiotensin II [1] = conditions: binding experiments, functional assays and in vivo tests; cited from earlier work
[2] = target: T1, rabbit aortic rings (angiotensin II contraction) (Oryctolagus cuniculus, UniProt P34976); test: Assay B: In Vitro Vascular Smooth Muscle Response for AII (rabbit aortic rings); assay type: cell-based, rabbit (male New Zealand white); conditions: rabbit aorta rings, antagonist 10^-5 M for 5 min, 37° C., read-out: Assay B pA2 (converted)
T1 construct: The thoracic aorta was removed, cleaned of adherent fat and connective tissue and then cut into 3-mm ring segments; from tissue; host or cells: rabbit thoracic aorta rings, endothelium removed
T1 sequence (P34976 1-359): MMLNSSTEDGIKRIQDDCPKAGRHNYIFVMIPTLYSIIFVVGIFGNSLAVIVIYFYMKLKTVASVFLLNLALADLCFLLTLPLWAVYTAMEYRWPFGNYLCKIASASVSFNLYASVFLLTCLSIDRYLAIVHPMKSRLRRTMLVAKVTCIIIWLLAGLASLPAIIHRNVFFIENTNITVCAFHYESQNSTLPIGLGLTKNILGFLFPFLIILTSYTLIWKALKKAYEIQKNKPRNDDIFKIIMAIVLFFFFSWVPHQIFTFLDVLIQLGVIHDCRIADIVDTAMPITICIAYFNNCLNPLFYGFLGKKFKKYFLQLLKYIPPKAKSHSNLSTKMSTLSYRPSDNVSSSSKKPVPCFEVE
Procedure: Assay B: In Vitro Vascular Smooth Muscle-Response for AII
The compounds of the invention were tested for antagonist activity in rabbit aortic rings. Male New Zealand white rabbits (2-2.5 kg) were sacrificed using an overdose of pentobarbital and exsanguinated via the carotid arteries. The thoracic aorta was removed, cleaned of adherent fat and connective tissue and then cut into 3-mm ring segments. The endothelium was removed from the rings by gently sliding a rolled-up piece of filter paper into the vessel lumen. The rings were then mounted in a water-jacketed tissue bath, maintained at 37° C., between moveable and fixed ends of a stainless steel wire with the moveable end attached to an FT03 Grass transducer coupled to a Model 7D Grass Polygraph for recording isometric force responses. The bath was filled with 20 ml of oxygenated (95% oxygen/5% carbon dioxide) Krebs solution of the following composition (mM): 130 NaCl, 15 NaHCO3, […], 1.2 NaH2 PO4, 1.2 MgSO4, 2.5 CaCl2, and 11.4 glucose. The preparations were equilibrated for one hour before approximately one gram of passive tension was placed on the rings. Angiotensin II concentration-response curves were then recorded (3×10^-10 to 1×10^-5 M). Each concentration of AII was allowed to elicit its maximal contraction, and then AII was washed out repeatedly for 30 minutes before rechallenging with a higher concentration of AII. Aorta rings were exposed to the test antagonist at 10^-5 M for 5 minutes before challenging with AII. Adjacent segments of the same aorta ring were used for all concentration-response curves in the presence or absence of the test antagonist. The effectiveness of the test compound was expressed in terms of pA2 values and were calculated according to H. O. Schild [Br. J. Pharmacol. Chemother., 2, 189-206 (1947)]. The pA2 value is the concentration of the antagonist which increases the IC50 value for AII by a factor of two. Each test antagonist was evaluated in aorta rings from two rabbits.

[3] = target: smooth muscle angiotensin II receptor; test: Assay A: Angiotensin II Binding Activity (displacement of 125I-angiotensin II, rat uterine membrane preparation); conditions: 50% displacement of specifically bound 125I-AII, rat uterine membranes, 25° C., 60 min, pH 7.5
Procedure: Assay A: Angiotensin II Binding Activity
Compounds of the invention were tested for ability to bind to the smooth muscle angiotensin II receptor using a rat uterine membrane preparation. Angiotensin II (AII) was purchased from Peninsula Labs. ^125 I-angiotensin II (specific activity of 2200 Ci/mmol) was purchased from Du Pont-New England Nuclear. Other chemicals were obtained from Sigma Chemical Co. This assay was carried out according to the method of Douglas et al [Endocrinology, 106, 120-124 (1980)]. Rat uterine membranes were prepared from fresh tissue. All procedures were carried out at 4° C. Uteri were stripped of fat and homogenized in phosphate-buffered saline at pH 7.4 containing 5 mM EDTA. The homogenate was centrifuged at 1500×g for 20 min., and the supernatant was recentrifuged at 100,000×g for 60 min. The pellet was resuspended in buffer consisting of 2 mM EDTA and 50 mM Tris-HCl (pH 7.5) to a final protein concentration of 4 mg/ml. Assay tubes were charged with 0.25 ml of a solution containing 5 mM MgCl2, 2 mM EDTA, 0.5% bovine serum albumin, 50 mM Tris-HCl, pH 7.5 and ^125 I-AII (approximately 10^5 cpm) in the absence or in the presence of unlabelled ligand. The reaction was initiated by the addition of membrane protein and the mixture was incubated at 25° C. for 60 min. The incubation was terminated with ice-cold 50 mM Tris-HCl (pH 7.5) and the mixture was filtered to separate membrane-bound labeled peptide from the free ligand. The incubation tube and filter were washed with ice-cold buffer. Filters were assayed for radioactivity in a Micromedic gamma counter. Nonspecific binding was defined as binding in the presence of 10 μM of unlabelled AII. Specific binding was calculated as total binding minus nonspecific binding. The receptor binding affinity of an AII antagonist compound was indicated by the concentration (IC50) of the tested AII antagonist which gives 50% displacement of the total specifically bound ^125 I-AII from the high affinity AII receptor. Binding data were analyzed by a nonlinear least-squares curve fitting program.

angiotensin II [4] = conditions: cited from earlier work
[5] = first of two values in the cell (rings from two rabbits)
[6] = second of two values in the cell (rings from two rabbits)

Row | Kb [2, 5] [nM] | Kb [2, 6] [nM] | IC50 [3] [nM] | Structure (SMILES) | specific competitive angiotensin II antagonist activity (angiotensin II [1]) | residual agonist activity (angiotensin II [4])
1 |  |  |  | CCCCc1nc(Cl)c(CC(=O)O)n1Cc1ccccc1[N+](=O)[O-] [2-butyl-4-chloro-1-(2-nitrobenzyl)imidazole-5-acetic acid] | specific competitive angiotensin II antagonist activity | 
2 |  |  |  | CCCCc1nc(Cl)c(CC(=O)O)n1Cc1ccccc1Cl [2-n-butyl-4-chloro-1-(2-chlorobenzyl)imidazole-5-acetic acid] | specific competitive angiotensin II antagonist activity | 
3 | 16.2 | 53.7 | 41 | CCCCc1ncc2n1C(c1ccc(-c3ccccc3-c3nnn[nH]3)cc1)CC=C2CC(=O)OC(C)(C)C (stereo not drawn) [Example 17, 1,1-Dimethylethyl 3-butyl-5,6-dihydro-5-[2'-(1H-tetrazol-5-yl)[1,1'-biphenyl]-4-yl]imidazo[1,5-a]pyridin-8-acetate] |  | 
4 | 105 | 741 | 66 | CCCCc1nc(CCCC)n2c1C(=NO)CCC2c1ccc(-c2ccccc2-c2nn[nH]n2)cc1 (stereo not drawn) [Example 21, 1,3-Dibutyl-5,6-dihydro-N-hydroxy-5-[2'-(1H-tetrazol-5-yl)[1.1'-biphenyl]-4-yl]imidazol[1,5-a]pyridin-8(7H)-imine] |  | 
5 |  |  |  | CNCC(=O)N[C@@H](CCCN=C(N)N)C(=O)N[C@H](C(=O)N[C@@H](Cc1ccc(O)cc1)C(=O)N[C@H](C(=O)N[C@@H](Cc1cnc[nH]1)C(=O)N1CCC[C@H]1C(=O)N[C@@H](C)C(=O)O)C(C)C)C(C)C [Saralasin] |  | significant residual agonist activity

Source: patent US5674879A, “Compositions including and methods of using conformationally restricted angiotensin II antagonist” (G.D. Searle & Co., priority 1995, dated 1997)
